# Results reported in patent EP1795186B1, “Flupirtin comprising medicament formulation with a controlled release of the active agent” (TEVA GmbH, priority 2005, dated 2007).
# Assay: Solubility in hydrochloric acid (gastric juice)
# Type: physicochemical
smiles,measurement,value
CCOC(=O)Nc1ccc(NCc2ccc(F)cc2)nc1N [Flupirtinmaleat],Löslichkeit in Salzsäure (Magensaft),löslich
